Assay [1] relates to NF-κB. The assay can be described thus: NF-κB activation by EMSA, Panc28 cells. The assay is classed as cell-based, human. Conditions: for effect on A23187-induced activation of NF-κB: Panc28. As to the method: (§1) To assess NF-κB activation, electrophoretic mobility shift assay (EMSA) was performed as described previously. Briefly, nuclear extracts prepared from cells (1×10^6/ml) were incubated with a ^32P end-labeled 45-mer double-stranded NF-κB oligonucleotide (15 μg of protein with 16 fmol of DNA) from the human immunodeficiency virus long terminal repeat, 5′-[…] […] CGCTG […] […]-3′ (boldface indicates NF-κB binding sites) (SEQ ID NO:17), for 30 minutes at 37° C., and the DNA-protein complex formed was separated from free oligonucleotide on 6.6% native polyacrylamide gels. A double-stranded mutated oligonucleotide, 5′-[…] […] CGCTG […] […]-3′ (SEQ ID NO:18), was used to examine the specificity of binding of NF-κB to the DNA. The specificity of binding was also examined using competition with the unlabeled and mutated oligonucleotides. For supershift assays, nuclear extracts were incubated with antibodies against either the p50 or the p65 subunit of NF-κB for 30 minutes at 37° C. before the complex was analyzed using EMSA.
Background: In EMSA bound probe runs differently from free probe, usually more slowly.

Assay [2] relates to NF-κB. Put plainly: NF-κB-dependent SEAP reporter gene assay, Panc28 cells. The assay is classed as cell-based, human. As to the method:
(§2) NF-κB dependent reporter gene transcription was analyzed using secretory alkaline phosphatase (SEAP) assay as described previously. Briefly, Panc28 and MCF-7 cells (5×10^5 cells/well in a six-well plate) were transiently transfected by the calcium phosphate method in a 1 ml medium containing 0.5 μg of NF-κB promoter DNA, linked to the heat-stable SEAP gene or with the control plasmid pCMV-FLAG1 DNA. Transfected cells were either left untreated or treated with 1 μM A23187 (Sigma-Aldrich), 1 mM BPA, or 1 nM tumor necrosis factor (TNF)-α (Genentech, South San Francisco, Calif.). Twenty-four hours after treatment, the conditioned medium was removed and assayed for SEAP activity according to the manufacturer's instructions (Clontech Laboratories, Mountain View, Calif.) using an automated microplate reader (PerkinElmer, Wellesley, Mass.). In some experiments cells were co-transfected with dominant-negative construct of IκBα along with NF-κB reporter gene.
(In general: A reporter such as luciferase makes a cellular process visible.)

In assay [3] the test system is NF-κB. Put plainly: NF-κB activation by EMSA, MCF-7 cells. The assay is classed as cell-based, human. Conditions: MCF-7 cells (lack TG2). How it is done: as §1
Assay [4] deals with NF-κB. Put plainly: NF-κB-dependent SEAP reporter gene assay, MCF-7/WT cells. The assay is classed as cell-based, human. As to the method: as §2
For assay [5], the system named is NF-κB. Put plainly: NF-κB activation by EMSA, BxPc3 cells. The assay is classed as cell-based, human. Conditions: 1 μM or 2 μM, 24 hours. How it is done:
as §1

In another assay the test system is MiaPaCa-2 cells. The assay can be described thus: Gemcitabine cytotoxicity, MTS assay, MiaPaCa-2. The assay is classed as cell-based. As to conditions: Homo sapiens, MIA PaCa-2, 72 hours. As to the method: (§3) The number of viable cells remaining after the appropriate treatment was determined by measuring their ability to reduce 3-(4,5-dimethylthiazol-2-yl)-5-(3-carboxymethoxyphenyl)-2H-tetrazolium (MTS) into a soluble formazan in accordance with the manufacturer's instructions. Logarithmically growing cells were plated at 2×10^3 cells per well in 96-well plates and allowed to adhere overnight. […] Each experiment was repeated three times in triplicate. […] Under identical conditions, the cells were trypsinized, and the cell viability was determined with a trypan blue exclusion test to confirm the MTS results.

Assay [6] has as its system Panc-28 tumors. The assay can be described thus: Microvessel density (CD31) in Panc-28 tumors. The assay is classed as in vivo, nude mice. Conditions: CD31 staining. The text has this:
A rat anti-mouse CD31 monoclonal antibody was used to determine the microvessel density in xenografts. The CD31 stained slides were observed under a Leica DM4000B fluorescence microscope (Leica Microsystems Inc, Bannockburn, Ill.) equipped with SPOT-RTKE digital camera (Diagnostic instruments, Sterling Heights, Mich.) and the images were acquired and stored using SPOT advanced software (Diagnostic instruments, Sterling Heights, Mich.). The stored images were processed using NIH ImageJ software. The vessel density in each image was estimated by setting a minimum threshold of 4 pixel^2. Setting a minimum threshold enables to avoid the background non-specific staining and to eliminate the fluorescence signal from single endothelial cell. Results were expressed as the mean number of vessels±SE per high power field (HPF, 100× magnification). A total of 20 random HPFs were examined and counted in four different tumor samples from each treatment group.

The subject of assay [7] is Panc-28 tumors. Put plainly: Ki-67 proliferation staining of Panc-28 tumors. Further details: species or system nude mice. As to conditions: mouse, in vivo. An excerpt:
Ki-67 staining was used to evaluate the proliferation index of in vivo growing xenografts and expressed as the number of Ki-67^+ cells±standard error (SE) as determined by counting 10 random microscopic fields for three different tumor samples per treatment group.

Assay [8] has as its system Panc-28 tumors. The assay can be described thus: TUNNEL assay of apoptosis in Panc-28 tumors. The assay is classed as in vivo, nude mice. As to the method: Terminal deoxynucleotidyl transferase mediated […] nick end labeling (TUNNEL) assay (Roche Molecular Biochemicals, Mannhein, Germany) of frozen sections to detect apoptotic cells was performed according to the manufacturer's protocol. The apoptotic fluorescence-positive cells were counted under a microscope and expressed as the percentage of total cells±SE. Ten fields in three tumors per treatment group were examined.

In assay [9] the test system is Panc-28 tumors. Put plainly: Orthotopic Panc-28 PDAC tumor model: tumor growth and metastasis. As to conditions: vs control siRNA group, end of treatment. The assay is classed as in vivo, nude (nu/nu) mice.
Text: Panc-28 cells were stably transduced with the firefly luciferase gene as described previously (23). Luciferase-infected Panc-28 cells were harvested from subconfluent cultures after brief exposure to 0.25% trypsin and 0.2% EDTA. Trypsinization was stopped with the medium containing 10% fetal bovine serum. The cells were washed once in serum-free medium and resuspended in PBS. Single cell suspensions with >90% cell viability were used for implantation into the mice. Animals were anesthetized using intraperitoneal injection of 200 μl ketamine (100 mg/kg) and xylazine (5-10 mg/kg). […] The incision was closed in a single layer using sterile surgical Autoclips (Braintree Scientific, Braintree, Mass.), antibacterial mycotic cream was applied to the wound and the animal was placed on a heating pad to maintain body temperature and closely monitored until conscious.
Tumor growth in the mice after tumor-cell implantation was monitored weekly using a noninvasive bioimaging technique. […] Ten minutes after injection, each mouse was placed in the right lateral decubitus position, and bioluminescence was measured using a cryogenically cooled IVIS imaging system coupled with a data acquisition computer running LivingImage software (Xenogen Corp., Alameda, Calif.). […] The signal intensity was quantified as the sum of all detected photons within the region of interest per second per cm^2 per steridian. […]
Another assay concerns Panc-28 cells. Put plainly: Gemcitabine cytotoxicity, MTS assay, Panc-28. The assay is classed as cell-based. As to conditions: Homo sapiens, 72 hours. How it is done: as §3
The next assay relates to BxPC-3 cells. Put plainly: Gemcitabine cytotoxicity, MTS assay, BxPC-3. The assay is classed as cell-based. As to conditions: Homo sapiens. As to the method: as §3
In general terms: Tetrazolium assays rely on reduction of a dye to a coloured formazan, in cell work by metabolically active cells.

In a further assay the test system is VEGF, pAkt (ser473). Put plainly: VEGF and pAkt expression in Panc-28 tumors. Set-up: species or system nude mice. Conditions: mouse, in vivo. How it is done:
Pancreatic tumor tissue samples obtained from control and experimental mice were minced and incubated on ice for 30 min in 0.5 ml of ice-cold lysate buffer (20 mmol/L Tris-HCl, pH 7.4, containing 10% NP-40, 5 mol/L NaCl, 1 mol/L HEPES, 0.5 mol/L EDTA, 0.1 mol/L phenylmethylsulfonyl fluoride, 0.2 mol/L sodium orthovanadate, 1 mol/L NaF, 2 μg/ml aprotinin, and 2 μg/ml leupeptin). The minced tissue was homogenized using a Dounce homogenizer and centrifuged at 16,000×g at 4° C. for 10 min. Fifty micrograms of total protein from each sample was then fractionated using sodium dodecyl sulfate-polyacrylamide gel, electrotransferred onto nitrocellulose membranes, blotted with appropriate antibodies, and antigen antibody reaction detected using enhanced chemiluminescence (Amersham Pharmacia Biotech, Piscataway, N.J.). […] The protein bands obtained were quantified using the AlphaEase FC (Fluor Chem 8900) software program (Alpha Innotech, San Leandro, Calif.).
Tissue microarray slides constructed using 65 formalin-fixed patient tumor samples and 9 normal pancreatic tissue samples were used for this study. […] TG2 protein expression in these tumor samples and xenograft tumors from siRNA treated mice was evaluated immunohistochemically using the Vectastatin Elite ABC immunostaining kit (Vector Laboratories, Burlingame, Calif.) as described previously (12). […]

“Also recorded” adds a separate entry of the source.

For the molecule `CNc1ccc2oc(C[C@H]3O[C@@]4(CC[C@H]3C)O[C@H]([C@H](C)C(=O)c3ccc[nH]3)[C@H](C)C[C@H]4C)nc2c1C(=O)O` [A23187], the “basal TG2 activity and constitutive NF-κB activation” value in the assay with NF-κB [1] (Panc28 cells) is reported as “could be further induced”. Further, the “SEAP expression in response to A23187” value in the assay with NF-κB [2] (Panc28, 1 µM for 24 hours) is “did not increase further”. Also, the NF-κB activation entry is given as “failed to show an increase in NF-κB activation” with NF-κB [3] and “strong activation of NF-κB” in the assay on NF-κB [5]. For the same molecule, the “A23187-induced SEAP activity” value in the assay on NF-κB [4] is recorded as “No basal or A23187-induced activity of SEAP”.

In the case of `NCCCCCNC(=O)CCCC[C@@H]1SC[C@@H]2NC(=O)N[C@@H]21` [BPA, 5-(biotinamido) pentylamine], in the assay with NF-κB [1] (Homo sapiens, Panc28, 1 mM for 24 hours, read-out: inhibition of constitutive activation of NF-κB), the inhibition at 1000 µM was approximately 70%. Further, the “effect on A23187-induced activation of NF-κB” value in the assay on NF-κB [1] is “failed to further augment A23187-induced activation of NF-κB”. The “inhibition of SEAP expression” value with NF-κB [2] (Panc28, P<0.002) was “significantly inhibited”. Further, the “inhibition of TNF-α-induced SEAP expression” value in the assay with NF-κB [4] (BPA 1 mM) is listed as “not by BPA”.

Consider `CN(C)c1cccc2c(S(=O)(=O)NCCCCCN)cccc12` [MDC, monodansylcadaverine], for which the inhibition at 50 µM in the assay with NF-κB [1] (Homo sapiens, Panc28, 50 μM, 24 hours) was approximately 60%. Moreover, the “effect on A23187-induced activation of NF-κB” value in the assay with NF-κB [1] is reported as “blocked A23187-induced activation”.

Regarding `Nc1ccn([C@@H]2O[C@H](CO)[C@@H](O)C2(F)F)c(=O)n1` [gemcitabine], the IC50 with MiaPaCa-2 cells was 100 nM; with Panc-28 cells it was 1000 nM; in the assay on BxPC-3 cells (BxPC-3 cells (TG2-deficient), 72 hours) it was 10 nM; in the assay on BxPC-3 cells (BxPC-3 cells infected with TG2wt adenoviral construct, data not shown), 100 nM. Further, the “mean blood vessel / microvascular density” value in the assay on Panc-28 tumors [6] is “significant decrease in the mean blood vessel density”. In the assay on Panc-28 tumors [7], the Ki-67 staining result was “high levels of Ki-67 staining”. In addition, the “apoptotic cells in tumors” value in the assay on Panc-28 tumors [8] is “significant increases in the numbers of apoptotic cells”. For the same molecule, the metastasis score entry with Panc-28 tumors [9] is reported as “completely ineffective in inhibiting metastasis; also recorded: no decreases in the metastasis score”. Moreover, in the assay with VEGF, pAkt (ser473), the “pAkt (serine 473) in tumors” value is “no significant changes in NF-κB activity or pAkt levels”.

TNF-α registered an SEAP reporter expression with NF-κB [4] (TNF 1 nM, fold over non-transfected control) of 14 fold.

The inhibition is the percentage by which the read-out fell short of the control. A word on the IC50: it is the midpoint of a concentration-inhibition curve. Higher therefore signals lower potency.

For the origin of these results see patent publication US8299040B2, “Methods for treating cancer targeting transglutaminase” (Board of Regents, The University of Texas System, priority 2006, dated 2012).
